Test results: PubChem BioAssay AID328 (DTP/NCI, 2004)
Toxic doses and inconclusive results are not listed.

Tested on: BDF1 mice, P388 leukemia ip, median survival T/C
Test: NCI In Vivo Anticancer Drug Screen. Data for tumor model P388 Leukemia (intraperitoneal) in B6D2F1 (BDF1) mice
Settings: endpoint: median survival time, higher = longer survival
Procedure, shortened: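 Read-out is survival of treated animals expressed relative to the vehicle group, as a T/C ratio.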

[1] = dose: 100.0 mg/kg/injection, schedule: Q01DX009 (ip), vehicle: saline with Tween-80
[2] = dose: 100.0 mg/kg/injection, schedule: Q04DX003 (ip), vehicle: saline with Tween-80
[3] = dose: 200.0 mg/kg/injection, schedule: Q01DX009 (ip), vehicle: saline with Tween-80
[4] = dose: 200.0 mg/kg/injection, schedule: Q04DX003 (ip), vehicle: saline with Tween-80
[5] = dose: 400.0 mg/kg/injection, schedule: Q04DX003 (ip), vehicle: saline with Tween-80

**Q.** Which T/C [1] does the source give for `CCCC#CCOCC1CO1` (stereo not drawn) here?
**A.** 116 % of control

**Q.** And the T/C [2]?
**A.** 100 % of control

**Q.** What about the T/C [3] of the same compound?
**A.** 120 % of control

**Q.** What about the T/C [4] of the same compound?
**A.** 100 % of control

**Q.** What about the T/C [5] of the same compound?
**A.** 95 % of control

**Q.** For `C=CCc1ccccc1C=O`, which T/C [2] is on record?
**A.** 97 % of control

**Q.** And the T/C [4]?
**A.** 95 % of control

**Q.** And the T/C [5]?
**A.** 97 % of control

**Q.** What does the source list for `Cn1c(O)c(C=N)c(=O)n(C)c1=O`?
**A.** T/C (dose: 12.0 mg/kg/injection, schedule: Q01DX009 (ip), vehicle: saline): 118 % of control; T/C (dose: 25.0 mg/kg/injection, schedule: Q01DX009 (ip), vehicle: saline): 109 % of control; T/C (dose: 25.0 mg/kg/injection, schedule: Q04DX003 (ip), vehicle: saline): 92 % of control; T/C (dose: 50.0 mg/kg/injection, schedule: Q01DX009 (ip), vehicle: saline): 100 % of control; T/C (dose: 50.0 mg/kg/injection, schedule: Q04DX003 (ip), vehicle: saline): 100 % of control

**Q.** With `Cc1cc2nc(SCC(=O)O)[nH]c2cc1C` as the compound, how does the T/C (dose: 100.0 mg/kg/injection, schedule: Q01DX009 (ip), vehicle: gum acacia) read?
**A.** 107 % of control

**Q.** What about the T/C (dose: 100.0 mg/kg/injection, schedule: Q04DX003 (ip), vehicle: gum acacia) of the same compound?
**A.** 103 % of control

**Q.** What about the T/C (dose: 200.0 mg/kg/injection, schedule: Q01DX009 (ip), vehicle: gum acacia) of the same compound?
**A.** 100 % of control

**Q.** What about the T/C (dose: 200.0 mg/kg/injection, schedule: Q04DX003 (ip), vehicle: gum acacia) of the same compound?
**A.** 107 % of control

**Q.** And the T/C (dose: 400.0 mg/kg/injection, schedule: Q01DX009 (ip), vehicle: gum acacia)?
**A.** 96 % of control

**Q.** What about the T/C (dose: 400.0 mg/kg/injection, schedule: Q04DX003 (ip), vehicle: gum acacia) of the same compound?
**A.** 107 % of control

**Q.** How did the T/C (dose: 50.0 mg/kg/injection, schedule: Q01DX009 (ip), vehicle: saline with Tween-80) turn out when `Cn1c(Cc2ccccc2)c([N+](=O)[O-])c(=O)n(C)c1=O` was run?
**A.** 110 % of control

**Q.** And the T/C [1]?
**A.** 113 % of control

**Q.** What does the source list for `COc1cc2c(cc1OC)-c1ccc3cc4c(cc3c1N(C)C2)OCO4`?
**A.** T/C (dose: 10.0 mg/kg/injection, schedule: Q01DX009 (ip), vehicle: other): 123 % of control; T/C (dose: 40.0 mg/kg/injection, schedule: Q01DX009 (ip), vehicle: other): 155 % of control

**Q.** Which results are given for `O=C(OCC1OC(n2cnc3c(=S)nc[nH]c32)C(OC(=O)c2ccc([N+](=O)[O-])cc2)C1OC(=O)c1ccc([N+](=O)[O-])cc1)c1ccc([N+](=O)[O-])cc1` (stereo not drawn)?
**A.** T/C (dose: 50.0 mg/kg/injection, schedule: Q01DX009 (ip), vehicle: Klucel (hydroxypropylcellulose) (HPC)): 100 % of control; T/C (dose: 100.0 mg/kg/injection, schedule: Q01DX009 (ip), vehicle: Klucel (hydroxypropylcellulose) (HPC)): 109 % of control; T/C (dose: 200.0 mg/kg/injection, schedule: Q01DX009 (ip), vehicle: Klucel (hydroxypropylcellulose) (HPC)): 109 % of control; T/C (dose: 400.0 mg/kg/injection, schedule: Q01DX009 (ip), vehicle: Klucel (hydroxypropylcellulose) (HPC)): 118 % of control

**Q.** For `CCCCCCCC/C=C\CCCCCCCC(=O)OC`, which T/C [2] is on record?
**A.** 96 % of control

**Q.** And the T/C [3]?
**A.** 120 % of control

**Q.** And the T/C [4]?
**A.** 103 % of control

**Q.** And the T/C [5]?
**A.** 88 % of control

**Q.** With `O=C(O)CNCc1ccc(Cl)cc1` as the compound, how does the T/C (dose: 50.0 mg/kg/injection, schedule: Q04DX003 (ip), vehicle: water) read?
**A.** 103 % of control

**Q.** And the T/C (dose: 100.0 mg/kg/injection, schedule: Q04DX003 (ip), vehicle: water)?
**A.** 90 % of control

**Q.** And the T/C (dose: 200.0 mg/kg/injection, schedule: Q04DX003 (ip), vehicle: water)?
**A.** 94 % of control

**Q.** For `O=C1CN=C(c2ccccn2)c2cc(Cl)ccc2N1CCO`, which T/C [2] is on record?
**A.** 105 % of control

**Q.** And the T/C [4]?
**A.** 110 % of control

**Q.** What about the T/C [5] of the same compound?
**A.** 115 % of control

**Q.** How did the T/C (dose: 100.0 mg/kg/injection, schedule: Q01DX009 (ip), vehicle: other) turn out when `CC1(C)C2CCC(CN)C1C2` (stereo not drawn) was run?
**A.** 106 % of control

**Q.** Which T/C (dose: 50.0 mg/kg/injection, schedule: Q04DX003 (ip), vehicle: Klucel (hydroxypropylcellulose) (HPC)) does the source give for `CC(=O)/C=N/Nc1ccccc1` here?
**A.** 109 % of control

**Q.** And the T/C (dose: 66.0 mg/kg/injection, schedule: Q04DX003 (ip), vehicle: Klucel (hydroxypropylcellulose) (HPC))?
**A.** 110 % of control

**Q.** And the T/C (dose: 100.0 mg/kg/injection, schedule: Q04DX003 (ip), vehicle: Klucel (hydroxypropylcellulose) (HPC))?
**A.** 120 % of control

**Q.** What about the T/C (dose: 150.0 mg/kg/injection, schedule: Q04DX003 (ip), vehicle: Klucel (hydroxypropylcellulose) (HPC)) of the same compound?
**A.** 120 % of control

**Q.** What about the T/C (dose: 200.0 mg/kg/injection, schedule: Q04DX003 (ip), vehicle: Klucel (hydroxypropylcellulose) (HPC)) of the same compound?
**A.** 95 % of control
